Measurements: US10167284B2, “Spirocyclic compounds as agonists of the muscarinic M1 receptor and/or M4 receptor” (HEPTARES THERAPEUTICS LIMITED, priority 2015, dated 2019)

How the values were obtained:
[1] = tested on: d-amphetamine induced hyperactivity in rats; assay: d-Amphetamine-induced hyperactivity in rats; assay type: in vivo; conditions: positive control dose, previously observed
Description: Effect of a Novel Test Compound and Xanomeline on d-Amphetamine-Induced Hyperactivity in Rats
The aim of the study is to examine the effect of a novel test compound on d-amphetamine induced hyperactivity in rats. Schizophrenia is a complex multifactorial disease that cannot be fully represented by a single experimental procedure. Antipsychotic-like behaviour was assessed in rats by the inhibition of hyperactivity (or hyperlocomotion) elicited by d-amphetamine. This procedure is sensitive to clinically relevant dopamine receptor antagonists and is therefore considered suitable for comparing muscarinic agonists that influence dopaminergic signalling. […] Statistical analysis typically involved three-way analysis of covariance or robust regression with treatment, day and rack as factors and activity during the 30 minutes prior to treatment as a covariate, followed by appropriate multiple comparison tests. A P value of <0.05 was considered statistically significant and is marked accordingly in all subsequent figures.

[2] = molecular target: T1, human muscarinic M4 receptor (Homo sapiens, UniProt P08173); assay: Alphascreen Surefire phospho-ERK1/2 functional assay, M4; assay type: cell-based; conditions: for EC50 / M4 % Emax cf. ACh: CHO cells stably expressing human M4; for EC50: phospho-ERK1/2, read-out: pEC50 M4 (converted); for Emax: CHO, read-out: M4 % Emax cf. ACh, CHO cells stably expressing human M4; for Emax / M4 % Emax cf. ACh: Emax relative to ACh
T1 construct: expressed in transfected cells
T1 sequence (P08173 1-479): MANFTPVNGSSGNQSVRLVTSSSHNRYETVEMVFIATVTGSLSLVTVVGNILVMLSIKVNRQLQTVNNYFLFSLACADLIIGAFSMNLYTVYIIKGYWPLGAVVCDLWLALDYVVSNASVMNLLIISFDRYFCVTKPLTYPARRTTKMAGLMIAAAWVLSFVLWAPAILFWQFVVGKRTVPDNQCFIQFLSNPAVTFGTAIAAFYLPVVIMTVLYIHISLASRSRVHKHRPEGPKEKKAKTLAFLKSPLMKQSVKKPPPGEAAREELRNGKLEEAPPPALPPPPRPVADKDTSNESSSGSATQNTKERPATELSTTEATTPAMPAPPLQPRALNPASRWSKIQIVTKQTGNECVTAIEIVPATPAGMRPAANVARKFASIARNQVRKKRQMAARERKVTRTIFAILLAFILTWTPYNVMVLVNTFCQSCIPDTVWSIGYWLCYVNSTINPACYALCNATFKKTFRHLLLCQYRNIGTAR
Description: (§1) CHO cells stably expressing the human muscarinic M1, M2, M3 or M4 receptor were plated (25K/well) onto 96-well tissue culture plates in MEM-alpha+10% dialysed FBS. Once adhered, cells were serum-starved overnight. Agonist stimulation was performed by the addition of 5 μL agonist to the cells for 5 min (37° C.). Media was removed and 50 μL of lysis buffer added. After 15 min, a 4 μL sample was transferred to 384-well plate and 7 μL of detection mixture added. Plates were incubated for 2 h with gentle agitation in the dark and then read on a PHERAstar plate reader.
(§2) pEC50 and Emax figures were calculated from the resulting data for each receptor subtype.

[3] = molecular target: T2, human muscarinic M1 receptor (Homo sapiens, UniProt P11229); assay: Alphascreen Surefire phospho-ERK1/2 functional assay, M1; assay type: cell-based; conditions: for EC50 / M1 % Emax cf. ACh: CHO cells stably expressing human M1; for EC50: phospho-ERK1/2, read-out: pEC50 M1 (converted); for Emax: CHO, read-out: M1 % Emax cf. ACh, CHO cells stably expressing human M1; for Emax / M1 % Emax cf. ACh: Emax relative to ACh
T2 construct: expressed in transfected cells
T2 sequence (P11229 1-460): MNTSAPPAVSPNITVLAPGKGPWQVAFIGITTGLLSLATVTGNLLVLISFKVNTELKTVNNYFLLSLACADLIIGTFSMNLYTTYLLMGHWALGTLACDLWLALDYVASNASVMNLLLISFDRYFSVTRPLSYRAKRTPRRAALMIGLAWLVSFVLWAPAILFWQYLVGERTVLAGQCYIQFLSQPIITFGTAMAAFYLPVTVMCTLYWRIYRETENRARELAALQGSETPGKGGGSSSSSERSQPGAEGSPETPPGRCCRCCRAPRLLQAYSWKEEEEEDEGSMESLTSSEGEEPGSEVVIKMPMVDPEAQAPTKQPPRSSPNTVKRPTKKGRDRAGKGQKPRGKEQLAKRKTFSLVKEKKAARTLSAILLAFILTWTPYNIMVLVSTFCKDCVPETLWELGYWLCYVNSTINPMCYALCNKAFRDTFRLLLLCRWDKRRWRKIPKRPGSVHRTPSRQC
Description: as §1, §2

[4] = molecular target: T3, human muscarinic M2 receptor (Homo sapiens, UniProt P08172); assay: Alphascreen Surefire phospho-ERK1/2 functional assay, M2; conditions: for Emax: CHO, read-out: M2 % Emax cf. ACh, CHO cells stably expressing human M2; for Emax / M2 % Emax cf. ACh: Emax relative to ACh; for EC50: pEC50 M2, CHO cells stably expressing human M2
T3 sequence (P08172 1-466): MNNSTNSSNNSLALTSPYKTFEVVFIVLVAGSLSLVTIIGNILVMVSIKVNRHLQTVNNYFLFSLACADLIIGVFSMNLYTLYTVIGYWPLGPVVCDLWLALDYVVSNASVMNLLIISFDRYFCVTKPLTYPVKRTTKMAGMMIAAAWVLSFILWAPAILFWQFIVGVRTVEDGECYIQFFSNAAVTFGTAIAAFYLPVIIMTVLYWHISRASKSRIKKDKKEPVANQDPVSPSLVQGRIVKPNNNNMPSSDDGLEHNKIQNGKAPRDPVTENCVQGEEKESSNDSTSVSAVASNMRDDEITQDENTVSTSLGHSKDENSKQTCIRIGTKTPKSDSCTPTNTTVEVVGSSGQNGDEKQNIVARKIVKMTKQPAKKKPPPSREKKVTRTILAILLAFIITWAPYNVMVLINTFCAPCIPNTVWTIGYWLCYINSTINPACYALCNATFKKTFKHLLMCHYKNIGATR
Description: as §1, §2

[5] = molecular target: human muscarinic M3 receptor (Homo sapiens, UniProt P20309); assay: Alphascreen Surefire phospho-ERK1/2 functional assay, M3; conditions: for Emax: CHO, read-out: M3 % Emax cf. ACh, CHO cells stably expressing human M3
Description: as §1, §2

[6] = CHO cells stably expressing human M2

Sequence of human muscarinic M3 receptor (P20309 whole entry): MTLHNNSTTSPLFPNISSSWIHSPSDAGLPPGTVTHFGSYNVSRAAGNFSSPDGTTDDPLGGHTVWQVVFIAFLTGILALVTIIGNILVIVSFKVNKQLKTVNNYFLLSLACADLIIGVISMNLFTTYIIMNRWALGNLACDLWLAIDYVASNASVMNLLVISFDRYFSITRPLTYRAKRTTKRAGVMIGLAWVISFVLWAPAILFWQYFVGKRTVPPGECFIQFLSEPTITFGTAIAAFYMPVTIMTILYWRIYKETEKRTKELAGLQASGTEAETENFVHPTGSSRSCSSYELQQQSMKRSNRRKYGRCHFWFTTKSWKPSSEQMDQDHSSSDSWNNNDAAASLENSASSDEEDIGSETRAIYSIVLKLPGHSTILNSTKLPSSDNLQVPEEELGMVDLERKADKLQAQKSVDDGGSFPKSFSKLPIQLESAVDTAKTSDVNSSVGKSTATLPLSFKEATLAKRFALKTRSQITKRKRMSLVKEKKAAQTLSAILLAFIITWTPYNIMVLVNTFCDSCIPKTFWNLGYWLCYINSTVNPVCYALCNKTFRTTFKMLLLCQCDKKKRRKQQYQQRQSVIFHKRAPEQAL

| SMILES | d-amphetamine induced hyperactivity [1] | EC50 [2] [µM] | Emax [2] [%] | EC50 [3] [µM] | Emax [3] [%] | Emax [4] [%] | EC50 ([4]; phospho-ERK1/2) [µM] | EC50 [5] [µM] | Emax ([5]; Emax relative to ACh) [%] | M4 % Emax cf. ACh [2] | M1 % Emax cf. ACh [3] | M2 % Emax cf. ACh [4, 6] | pEC50 M2 ([4]; CHO cells stably expressing human M2, phospho-ERK1/2) | M3 % Emax cf. ACh ([5]; CHO cells stably expressing human M3, Emax relative to ACh) | pEC50 M3 ([5]; CHO cells stably expressing human M3, phospho-ERK1/2) |
| --- | --- | --- | --- | --- | --- | --- | --- | --- | --- | --- | --- | --- | --- | --- | --- |
| CCCCCCOc1nsnc1C1=CCCN(C)C1 [xanomeline] | significantly reduce |  |  |  |  |  |  |  |  |  |  |  |  |  |  |
| CCOC(=O)N1CCC2(CC(N3CCC4(CC3)OC(=O)N(CC(C)C)C4CC)C2)C1 (single isomer, unassigned) [4-24 Isomer 2 (racemic)] |  | 0.01 | 84 | 0.501 | 84 | 53 | > 20 | > 20 | 2 |  |  |  |  |  |  |
| CCOC(=O)N1CC2(CCC(N3CCC4(CC3)OC(=O)NC4(C)C)C2)C1 (single isomer, unassigned) [8-3 Isomer 2] |  | 0.00316 | 39 | > 20 | 12 | 2 | > 20 | > 20 | 4 |  |  |  |  |  |  |
| CCOC(=O)N1CC2(CC(N3CCC4(CC3)OC(=O)N(CC)C4(C)C)C2)C1 [Example 2-4, ethyl 6-(3-ethyl-4,4-dimethyl-2-oxo-1-oxa-3,8-diazaspiro[4.5]dec-8-yl)-2-azaspiro[3.3]heptane-2-carboxylate] |  | 0.501 | 95 | 1 | 56 | 14 | > 20 | > 20 | 24 |  |  |  |  |  |  |
| CCOC(=O)N1CC2(CC(N3CCC4(CC3)OC(=O)N(CC)C4CC)C2)C1 (racemic) [2-2 racemic] |  | 0.2 | 69 | 2 | 74 | 71 | > 20 | > 20 | 27 |  |  |  |  |  |  |
| CCOC(=O)N1CCC2(CC(N3CCC4(CC3)OC(=O)N(CC(F)(F)F)C4(C)C)C2)C1 (single isomer, unassigned) [4-43 Isomer 2] |  | 0.0794 | 75 | > 20 | 6 | 5 | > 20 | > 20 | 6 |  |  |  |  |  |  |
| CCCN1C(=O)OC2(CCN(C3CC4(CCN(C(=O)OCC)C4)C3)CC2)C1CC (single isomer, unassigned) [4-23 Isomer 3] |  | 0.0501 |  | 0.316 |  | 8 | > 20 | > 20 | 4 | (32) % | (88) % |  |  |  |  |
| CCOC(=O)N1CCC2(CC(N3CCC4(CC3)OC(=O)N(OC)C4CC)C2)C1 (mixture of isomers) [4-48 mixture of diastereomers] |  | 0.1 | 77 | 0.501 | 56 | 3 | > 20 | > 20 | 11 |  |  |  |  |  |  |
| CCOC(=O)N1CCC2(CC(N3CCC4(CNC(=O)C4)C(F)C3)C2)C1 (single isomer, unassigned) [3-9 Isomer 2] |  | > 20 | 47 | 0.794 | 62 | 4 | > 20 | > 20 | 14 |  |  |  |  |  |  |
| CCOC(=O)N1CCC2(CC(N3CCC4(CC3)CC(=O)NC4CC)C2)C1 (single isomer, unassigned) [3-5 Isomer 2] |  | 0.00316 | 108 | 0.0251 | 96 | 16 | > 20 | > 20 | 10 |  |  |  |  |  |  |
| COC(=O)N1CCC2(CC(N3CCC4(CC3)CNC(=O)C4)C2)C1 (single isomer, unassigned) [3-1 Isomer 2] |  | 0.1 | 50 | 0.0794 | 87 | 14 | > 20 | > 20 | 20 |  |  |  |  |  |  |
| CCOC(=O)N1CCC2(CC(N3CCC4(CC3)OC(=O)NC43CCCC3)C2)C1 (single isomer, unassigned) [4-31 Isomer 2] |  | 0.0316 | 88 | 0.794 | 66 | 4 | > 20 | > 20 | 4 |  |  |  |  |  |  |
| CCCN1C(=O)OC2(CCN(C3CC4(CCN(C(=O)OCC)C4)C3)CC2)C1CC (single isomer, unassigned) [4-23 Isomer 4] |  | 0.01 |  | 0.316 |  |  |  |  |  | (109) % | (96) % | (8) % | <4.7 | (3) % | <4.7 |
| CCC1NC(=O)CC12CCN(C1CC3(CCN(C(=O)OC)C3)C1)CC2 (single isomer, unassigned) [3-4 Isomer 3] |  | 0.0251 |  | 0.0794 |  |  | > 20 | > 20 | 24 | (71) % | (101) % | (8) % |  |  |  |
| CCOC(=O)N1CC2(CCC(N3CCC4(CC3)OC(=O)N(CC)C4CC)C2)C1 (mixture of isomers) [8-2 mixture of diastereomers] |  | 0.01 | 30 | 0.2 | 65 | 1 | > 20 | > 20 | 1 |  |  |  |  |  |  |
